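Following 48 hours of exposure in 96-well plates, responses at five concentrations were used to interpolate endpoints linearly. GI50 marks 50% less growth.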 Activity calls are given as the source filed them. Cut-off read from the data, not from the text of the source: active = GI50 up to about 1.1 µM and inactive = higher.
Columns and labels:
Test in all cases: NCI anticancer screen, dose series, 48 h
[1] = system: SK-MEL-28
[2] = system: A498
[3] = system: SNB-75
[4] = system: M14
[5] = system: Hs-578T
[6] = system: LOX IMVI
[7] = system: SF-539
[8] = system: SF-268
[9] = system: MCF7
[10] = system: NCI-H23
[11] = system: UACC-257
[12] = system: OVCAR-5
[13] = system: K562
[14] = system: 786-0
[15] = system: SW-620
[16] = system: OVCAR-8
[17] = system: SF-295
[18] = system: BT-549
[19] = system: SK-MEL-2

Measured: GI50

CC1OC(OC2C(O)COC(OC3C(C)OC(OC4C(OC(=O)[C@]56CCC(C)(C)C[C@@H]5C5=CCC7[C@@]8(C)C[C@H](O)[C@H](OC9OC(CO)C(O)C(OC%10OC(CO)C(O)C(O)C%10O)C9O)[C@@](C)(CO)[C@@H]8CC[C@@]7(C)[C@]5(C)CC6)OCC(O)C4O)C(O)C3OC3OCC(O)(CO)C3O)C2O)C(O)C(O)C1O (stereo partly specified)
inactive: [1] 6.24 µM | [2] 9.62 µM | [3] 11.2 µM | [4] 6.15 µM | [5] 11.3 µM | [6] 8.51 µM | [7] 8.83 µM | [8] 10 µM | [9] 12.4 µM | [10] 5.87 µM | [11] 9.1 µM | [12] 9.02 µM | [13] 22.7 µM | [14] 8.09 µM | [15] 6.43 µM | [16] 9.84 µM | [17] 9.66 µM | [18] 5.19 µM

CC(C)(C)C1CC[C@H](O)[C@H]([C@H](O)CC2CC(=O)N(c3ccccc3)C(=O)C2)C1 (stereo partly specified)
inactive: [1] > 100 µM | [2] > 100 µM | [3] > 100 µM | [4] > 100 µM | [5] > 100 µM | [6] > 100 µM | [7] > 100 µM | [8] > 100 µM | [9] > 100 µM | [10] 91.6 µM | [11] > 100 µM | [12] > 100 µM | [13] > 100 µM | [14] > 100 µM | [15] > 100 µM | [16] > 100 µM | [17] 63.7 µM | [18] > 100 µM

CC1=CC(C)(C)[C@H]2O[C@@]3(O)C[C@]4(C)[C@H]5C[C@@](C(C)C)(O[C@H]4c4ccoc4)O[C@H]4[C@]5(C3)O[C@@]1(O)[C@]24O
inactive: [1] 81.8 µM | [3] 12.3 µM | [4] > 100 µM | [5] 18.7 µM | [6] > 100 µM | [7] > 100 µM | [19] > 100 µM | [8] > 100 µM | [9] > 100 µM | [10] > 100 µM | [11] > 100 µM | [12] > 100 µM | [13] > 100 µM | [14] 89.1 µM | [15] > 100 µM | [16] > 100 µM | [17] > 100 µM | [18] > 100 µM

N=C(N)C(/N=N\c1ccccc1)C(=N)N (stereo unspecified)
inactive: [1] 49.1 µM | [2] 54.5 µM | [4] 40.7 µM | [5] 48.9 µM | [6] 34 µM | [7] 14.9 µM | [19] 23.4 µM | [8] 59.6 µM | [9] 25.6 µM | [10] 50.4 µM | [11] 33.7 µM | [12] 49.7 µM | [13] 23.7 µM | [14] 35.6 µM | [15] 34.4 µM | [16] 95.5 µM | [17] 32.9 µM | [18] 39.9 µM

C[C@@]12CCC3C1C=C1C(=O)c4cc(O)ccc4C(=O)[C@]1(O2)[C@@]3(C)C=O
inactive: [2] 1.48 µM | [4] 8.34 µM | [5] 16.2 µM | [6] 2.57 µM | [7] 3.82 µM | [19] 8.91 µM | [8] 9.91 µM | [9] 3.52 µM | [10] 3.93 µM | [11] 9.16 µM | [12] 13.7 µM | [13] 2.3 µM | [14] 4.14 µM | [15] 3.9 µM | [16] 6.01 µM | [17] 11.5 µM | [18] 2.51 µM

Nc1nnc(-c2ccco2)c(-c2ccco2)n1
inactive: [1] > 100 µM | [2] > 100 µM | [3] 86.9 µM | [4] > 100 µM | [5] > 100 µM | [7] > 100 µM | [19] > 100 µM | [8] > 100 µM | [9] > 100 µM | [10] > 100 µM | [11] > 100 µM | [12] > 100 µM | [13] > 100 µM | [14] > 100 µM | [15] > 100 µM | [16] > 100 µM | [17] > 100 µM | [18] > 100 µM

COC(=O)C(Cc1ccccc1)NP(=O)(O)OCC1OC(n2cc(I)c(=O)[nH]c2=O)CC1O (stereo unspecified)
inactive: [1] > 100 µM | [2] > 100 µM | [3] > 100 µM | [4] > 100 µM | [5] > 100 µM | [6] > 100 µM | [7] > 100 µM | [8] > 100 µM | [9] > 100 µM | [10] > 100 µM | [11] > 100 µM | [13] > 100 µM | [14] > 100 µM | [15] > 100 µM | [16] > 100 µM | [17] > 100 µM | [18] > 100 µM

Cc1sc2nc(-c3cc([N+](=O)[O-])c(Cl)cc3Cl)c(/C=N/NC(=N)N)n2c1C
inactive: [1] 2.4 µM | [2] 19.5 µM | [4] 2.76 µM | [5] 16.7 µM | [6] 2.29 µM | [7] 30.5 µM | [19] 1.97 µM | [8] 10.5 µM | [9] 2.86 µM | [10] 4.08 µM | [11] 10 µM | [12] 32.2 µM | [13] 3.06 µM | [14] 5.46 µM | [15] 13.6 µM | [16] 5.7 µM | [17] 13 µM | [18] 3.59 µM

COc1cc2c(cc1OC)C(=O)N(c1ccc(OCCN3CCCC3)cc1)C2
inactive: [1] > 100 µM | [2] > 100 µM | [4] > 100 µM | [5] > 100 µM | [6] > 100 µM | [7] > 100 µM | [19] > 100 µM | [8] > 100 µM | [9] > 100 µM | [10] > 100 µM | [11] > 100 µM | [12] > 100 µM | [13] > 100 µM | [14] > 100 µM | [15] > 100 µM | [16] > 100 µM | [17] > 100 µM | [18] > 100 µM

Cc1ccc(/C=N/Nc2ccc3ccccc3n2)s1
inactive: [1] 17.2 µM | [3] > 100 µM | [4] 16.9 µM | [5] 25.2 µM | [6] 17.1 µM | [7] 83.4 µM | [19] > 100 µM | [8] 60.1 µM | [9] 17.5 µM | [10] 18.6 µM | [11] 6.01 µM | [12] 27.3 µM | [13] 16.9 µM | [14] 18.8 µM | [15] 23.2 µM | [16] 26.7 µM | [17] 16.4 µM | [18] 18.2 µM

COc1ccc(CCNC(=O)[C@H]2CCCC[C@@H]2CCO)cc1OC
inactive: [1] > 100 µM | [2] > 100 µM | [3] 88.7 µM | [4] > 100 µM | [5] > 100 µM | [7] > 100 µM | [19] > 100 µM | [8] > 100 µM | [9] > 100 µM | [10] > 100 µM | [11] > 100 µM | [12] > 100 µM | [13] > 100 µM | [14] > 100 µM | [15] > 100 µM | [16] > 100 µM | [17] > 100 µM | [18] > 100 µM

— ChEMBL document CHEMBL1201862, “PubChem BioAssay data set” (2004)
